Consider 28 compounds from patent US7838674B2, “Tetracyclic lactame derivatives” (Novartis AG, priority 2007, dated 2010).

Structures can show the parent of a compound that is named as a salt. Bounds are passed on as bounds.

Chain of human MK2 (P49137 whole entry): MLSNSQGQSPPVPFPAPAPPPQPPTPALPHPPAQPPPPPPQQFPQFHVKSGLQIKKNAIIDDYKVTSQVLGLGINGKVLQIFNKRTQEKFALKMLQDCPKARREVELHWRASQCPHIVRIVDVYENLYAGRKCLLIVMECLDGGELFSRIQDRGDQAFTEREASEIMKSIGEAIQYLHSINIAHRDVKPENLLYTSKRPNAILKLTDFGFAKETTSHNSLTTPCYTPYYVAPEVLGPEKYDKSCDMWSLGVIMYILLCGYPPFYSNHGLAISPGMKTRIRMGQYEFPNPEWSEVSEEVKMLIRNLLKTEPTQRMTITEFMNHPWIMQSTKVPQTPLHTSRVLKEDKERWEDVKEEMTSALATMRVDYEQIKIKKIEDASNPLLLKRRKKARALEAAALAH

The target of the first experiment is T1, MAPKAPK2 enzyme (HIS-MK2, Invitrogen PV4019) (Homo sapiens, UniProt P49137).
T1 construct: His; purchased Invitrogen PV4019
T1 sequence (P49137 whole entry): as above
In words: Alternative MAPKAPK2 assay (Caliper microfluidic mobility shift, HSP27-peptide). The format is biochemical. To be noted: HIS-MK2 0.013 nM, ATP 10 μM, 60 min at 30° C.
Broadly, the IC50 is the concentration that inhibits the measured activity by half. As for `CC(=O)N1CCN(c2ccc(-c3cc4c(cn3)CCc3c-4[nH]c4c3C(=O)NCC43CC3)cc2C#N)CC1` [Example 313, 2-(4-Acetyl-piperazin-1-yl)-10-spirocyclopropyl-5-(7-oxo-6,7,8,9,10,11-hexahydro-5H-3,8,11-triaza-benzo[a]fluoren-2-yl)-benzonitrile], the IC50 turned out to be 8 nM.

Consider `CC(C)N1CCN(c2ccc(-c3cc4c(cn3)CCc3c-4[nH]c4c3C(=O)NCC43CC3)cc2C#N)CC1` [Example 314, 2-(4-Isopropyl-piperazin-1-yl)-10-spirocyclopropyl-5-(7-oxo-6,7,8,9,10,11-hexahydro-5H-3,8,11-triaza-benzo[a]fluoren-2-yl)-benzonitrile], for which the IC50 was 12 nM.

As to `N#Cc1cc(-c2cc3c(cn2)CCc2c-3[nH]c3c2C(=O)NCC32CC2)ccc1N1CCN(CCO)CC1` [Example 315, 2-[4-(2-Hydroxy-ethyl)-piperazin-1-yl]-10-spirocyclopropyl-5-(7-oxo-6,7,8,9,10,11-hexahydro-5H-3,8,11-triaza-benzo[a]fluoren-2-yl)-benzonitrile], the IC50 was 9 nM.

In the case of `CN1CCN(c2ccc(-c3cc4c(cn3)CCc3c-4[nH]c4c3C(=O)NCC43CC3)cn2)CC1` [Example 316, 2-[6-(4-Methyl-piperazin-1-yl)-pyridin-3-yl]-10-spirocyclopropyl-5,6,8,9,10,11-hexahydro-3,8,11-triaza-benzo[a]fluoren-7-one], the IC50 worked out at 11 nM.

For the compound `CN1CCN(c2c(F)cc(-c3cc4c(cn3)CCc3c-4[nH]c4c3C(=O)NCC43CC3)cc2C#N)CC1` [Example 317, 3-Fluoro-2-(4-methyl-piperazin-1-yl)-10-spirocyclopropyl-5-(7-oxo-6,7,8,9,10,11-hexahydro-5H-3,8,11-triaza-benzo[a]fluoren-2-yl)-benzonitrile], the IC50 stood at 51 nM.

On to `CN(C)C1CCN(c2ccc(-c3cc4c(cn3)CCc3c-4[nH]c4c3C(=O)NCC43CC3)cc2C#N)C1` (stereo not shown) [Example 318, 2-(3-Dimethylamino-pyrrolidin-1-yl)-10-spirocyclopropyl-5-(7-oxo-6,7,8,9,10,11-hexahydro-5H-3,8,11-triaza-benzo[a]fluoren-2-yl)-benzonitrile], for which the IC50 turned out to be 6 nM.

Regarding `N#Cc1cc(-c2cc3c(cn2)CCc2c-3[nH]c3c2C(=O)NCC32CC2)ccc1CN1CCOCC1` [Example 319, 2-Morpholin-4-ylmethyl-10-spirocyclopropyl-5-(7-oxo-6,7,8,9,10,11-hexahydro-5H-3,8,11-triaza-benzo[a]fluoren-2-yl)-benzonitrile], the IC50 came to 38 nM.

In the case of `CN1CCN(c2ccc(-c3cc4c(cn3)CCc3c-4[nH]c4c3C(=O)NC3(CC3)C4)cc2C#N)CC1` [Example 321, 2-(4-Methyl-piperazin-1-yl)-9-spirocyclopropyl-5-(7-oxo-6,7,8,9,10,11-hexahydro-5H-3,8,11-triaza-benzo[a]fluoren-2-yl)-benzonitrile], the IC50 was determined as 9 nM.

As to `O=C1NCC2(CNC2)c2[nH]c3c(c21)CCc1cnc(-c2ccc(CN4CCOCC4)c(F)c2)nc1-3` [Example 326, 2-(3-Aminomethyl-azetidin-3-yl)-8-(3-fluoro-4-morpholin-4-ylmethyl-phenyl)-4,5-dihydro-1H-1,7,9-triaza-cyclopenta[a]naphthalene-3-carboxylic acid lactam], the IC50 was determined as 15 nM.

Take `O=C1NCC2(CNC2)c2[nH]c3c(c21)CCc1cnc(-c2ccc(N4CCOCC4)nc2)nc1-3` [Example 329, 2-(3-Aminomethyl-azetidin-3-yl)-8-(6-morpholin-4-yl-pyridin-3-yl)-4,5-dihydro-1H-1,7,9-triaza-cyclopenta[a]naphthalene-3-carboxylic acid lactam]: the IC50 was 6 nM.

Another experiment has as its target human MK2 (Homo sapiens, UniProt P49137). In words: MAPKAPK2 kinase assay (TR-FRET, Hsp27 peptide substrate).
Details: not given
For orientation: In TR-FRET formats the signal depends on donor and acceptor labels being close together.
`O=C1NCC2(CC2)c2[nH]c3c(c21)CCc1cnc(/C=C/c2ccccc2)cc1-3` [Example 2, 2-(1-Aminomethyl-cyclopropyl)-8-((E)-styryl)-4,5-dihydro-1H-pyrrolo[2,3-f]isoquinoline-3-carboxylic acid lactame] came in with an IC50 of 21 nM.

`COCCOc1cncc(-c2cc3c(cn2)CCc2c-3[nH]c3c2C(=O)NC2(CCC2)C3)c1` [Example 3, 2-(1-Amino-cyclobutylmethyl)-8-[5-(2-methoxy-ethoxy)-pyridin-3-yl]-4,5-dihydro-1H-pyrrolo[2,3-f]isoquinoline-3-carboxylic acid lactame] came in with an IC50 of 63 nM.

Consider `O=C1NC2(CCC2)Cc2[nH]c3c(c21)CCc1cnc(/C=C/c2ccccc2)cc1-3` [Example 4, 2-(1-Amino-cyclobutylmethyl)-8-((E)-styryl)-4,5-dihydro-1H-pyrrolo[2,3-f]isoquinoline-3-carboxylic acid lactame], for which half-maximal inhibition (IC50) required 65 nM.

The compound `O=C1NC2(CC2)Cn2nc3c(c21)CCc1cnc(/C=C/c2ccccc2)cc1-3` [Example 10, 2-(1-Amino-cyclopropylmethyl)-8-((E)-styryl)-4,5-dihydro-2H-1,2,7-triaza-cyclopenta[a]naphthalene-3-carboxylic acid lactame] came in with an IC50 greater than 10 nM.

`COc1ccc(-c2cc3c(cn2)CCc2c-3nn3c2C(=O)NC2(CN(C(C)=O)C2)C3)cc1` [Example 12, 2-(1-Acetyl-3-amino-azetidin-3-ylmethyl)-8-(4-methoxy-phenyl)-4,5-dihydro-2H-1,2,7-triaza-cyclopenta[a]naphthalene-3-carboxylic acid lactame] gave an IC50 greater than 10 nM.

The compound `COc1ccc(-c2ncc3c(n2)-c2[nH]c4c(c2CC3)C(=O)NC2(CNC2)C4)cc1` [Example 18, 2-(3-Amino-azetidin-3-ylmethyl)-8-(4-methoxy-phenyl)-4,5-dihydro-1H-1,7,9-triaza-cyclopenta[a]naphthalene-3-carboxylic acid lactame hydrochloride] displayed an IC50 of 18 nM.

For the compound `O=C1NC2(CNC2)Cc2[nH]c3c(c21)CCc1cnc(-c2cccc(F)c2)cc1-3` [Example 24, 2-(3-Amino-azetidin-3-ylmethyl)-8-(3-fluoro-phenyl)-4,5-dihydro-1H-pyrrolo[2,3-f]isoquinoline-3-carboxylic acid lactam hydrochloride], the IC50 turned out to be 13 nM.

`O=C1NC2(CNC2)Cc2[nH]c3c(c21)CCc1cnc(-c2cccc(F)c2)nc1-3` [Example 26, 2-(3-Amino-azetidin-3-ylmethyl)-8-(3-fluoro-phenyl)-4,5-dihydro-1H-1,7,9-triaza-cyclopenta[a]naphthalene-3-carboxylic acid lactam hydrochloride]: it took 15 nM to reach half-maximal inhibition (IC50).

With `Cn1c2c(c3c1-c1nc(-c4cccc(F)c4)ncc1CC3)C(=O)NC1(CNC1)C2` [Example 27, 2-(3-Amino-azetidin-3-ylmethyl)-8-(3-fluoro-phenyl)-1-methyl-4,5-dihydro-1H-1,7,9-triaza-cyclopenta[a]naphthalene-3-carboxylic acid lactam hydrochloride], the midpoint of inhibition, the IC50, lay at 43 nM.

As to `O=C1NC2(CC2)Cc2[nH]c3c(c21)CCc1cnc(-c2ccc(N4CCCCC4)nc2)cc1-3` [Example 83, 2-(1-Amino-cyclopropylmethyl)-8-(3,4,5,6-tetrahydro-2H-[1,2′]bipyridinyl-5′-yl)-4,5-dihydro-1H-pyrrolo[2,3-f]isoquinoline-3-carboxylic acid lactam], the IC50 worked out at 73 nM.

On to `Cc1cncc(-c2cc3c(cn2)CCc2c-3[nH]c3c2C(=O)NC2(CC2)C3)c1` [Example 84, 2-(1-Amino-cyclopropylmethyl)-8-(5-methyl-pyridin-3-yl)-4,5-dihydro-1H-pyrrolo[2,3-f]isoquinoline-3-carboxylic acid lactam], for which the midpoint of inhibition, the IC50, lay at 39 nM.

Turning to `COc1cncc(-c2cc3c(cn2)CCc2c-3[nH]c3c2C(=O)NC2(CC2)C3)c1` [Example 87, 2-(1-Amino-cyclopropylmethyl)-8-(5-methoxy-pyridin-3-yl)-4,5-dihydro-1H-pyrrolo[2,3-f]isoquinoline-3-carboxylic acid lactam], the IC50 turned out to be 42 nM.

`COc1ccc(-c2cc3c(cn2)CCc2c-3[nH]c3c2C(=O)NC2(CC2)C3)cn1` [Example 88, 2-(1-Amino-cyclopropylmethyl)-8-(6-methoxy-pyridin-3-yl)-4,5-dihydro-1H-pyrrolo[2,3-f]isoquinoline-3-carboxylic acid lactam] had an IC50 of 38 nM.

Compound `O=C1NC2(CC2)Cc2[nH]c3c(c21)CCc1cnc(-c2cncc(F)c2)cc1-3` [Example 89, 2-(1-Amino-cyclopropylmethyl)-8-(5-fluoro-pyridin-3-yl)-4,5-dihydro-1H-pyrrolo[2,3-f]isoquinoline-3-carboxylic acid lactam] returned an IC50 of 79 nM.

`CCOc1ccc(-c2cc3c(cn2)CCc2c-3[nH]c3c2C(=O)NC2(CC2)C3)cn1` [Example 90, 2-(1-Amino-cyclopropylmethyl)-8-(6-ethoxy-pyridin-3-yl)-4,5-dihydro-1H-pyrrolo[2,3-f]isoquinoline-3-carboxylic acid lactam] had an IC50 of 91 nM.

In turn, `O=C1NC2(CC2)Cc2[nH]c3c(c21)CCc1cnc(-c2cccnc2)cc1-3` [Example 93, 2-(1-Amino-cyclopropylmethyl)-8-pyridin-3-yl-4,5-dihydro-1H-pyrrolo[2,3-f]isoquinoline-3-carboxylic acid lactam] registered an IC50 of 51 nM.

In turn, `O=C1NC2(CC2)Cc2[nH]c3c(c21)CCc1cnc(-c2cncc(OC4CCOCC4)c2)cc1-3` [Example 94, 2-(1-Amino-cyclopropylmethyl)-8-[5-(tetrahydro-pyran-4-yloxy)-pyridin-3-yl]-4,5-dihydro-1H-pyrrolo[2,3-f]isoquinoline-3-carboxylic acid lactam] returned an IC50 of 53 nM.

For `O=C1NC2(CC2)Cc2[nH]c3c(c21)CCc1cnc(-c2ccc(Oc4ccc(F)cc4F)nc2)cc1-3` [Example 95, 2-(1-Amino-cyclopropylmethyl)-8-[6-(2,4-difluoro-phenoxy)-pyridin-3-yl]-4,5-dihydro-1H-pyrrolo[2,3-f]isoquinoline-3-carboxylic acid lactam], the IC50 amounted to 100 nM.
